Consider one molecule from paper PMC8001472, “Novel Selective IDO1 Inhibitors with Isoxazolo[5,4-d]pyrimidin-4(5H)-one Scaffold” (Pharmaceuticals, 2021).

By melting point is commonly meant the temperature of the solid-liquid transition. As a reminder, the pIC50 is −log10 of the IC50, conventionally taken in molar units.

For data set [1], the target named is T1, hTDO (Homo sapiens, UniProt P48775).
T1 construct: purchased Vinci-Biochem
The data set is described as follows: hTDO inhibitory potency evaluation (fluorescence assay). It counts as biochemical. Here is the method: Additionally, to determine IDO1 selectivity, all final compounds were assayed for their inhibitory potencies towards hIDO2 and hTDO. For this purpose, two new protocols were developed based on the published fluorescence assay for hIDO1 [25]. Sodium ascorbate, methylene blue, and bovine catalase were used in the same concentrations as for hIDO1. 50 mM phosphate buffers with pH values of 7.5 and 7.0 were used for hIDO2 and hTDO, respectively, as has been already mentioned before. First, the activities of hIDO2 and hTDO were determined at four different concentrations. […] Additionally, the effect of DMSO concentration on enzyme activity was investigated. […] The optimal hIDO2 and hTDO assay concentrations of the substrate L-Trp were determined to be 4 mM and 500 μM, respectively.
The activity of the compounds on hTDO was determined according to the previously reported fluorescence protocol for hIDO1 [25] and reported absorbance protocols for hTDO [30] with several modifications. Recombinant hTDO was purchased from Vinci-Biochem (Vinci-Biochem, Vinci, Italy), bovine catalase was purchased from Sigma-Aldrich (Sigma-Aldrich, St. Louis, MO, USA). Prior to the measurement of activity for compounds, the enzyme activity was determined, and optimal assay enzyme concentration was selected. The amounts of reagents needed to perform the assay were optimized. Briefly, the reagents needed were dissolved in 50 mM potassium phosphate buffer (pH 7.0, 0.01%, v/v Tween 20), the reaction was performed in black 384-well microplates. After the addition of 1 μL of 100 mM sodium ascorbate neutralized with equimolar amount of 1 M NaOH, 1 μL of 100 μM methylene blue, 1 μL of 1 mg/mL bovine catalase, 0.5 μL of DMSO (negative control) or solution of a compound, 5 μL of 300 nM hTDO and 1.5 μL of 3.3 mM L-Trp were added and the microplate was incubated for 60 min at 37 °C. The reaction was quenched with the addition of 10 μL of 400 mM piperidine solution in MilliQ water and the formation of the examined fluorophore began following incubation at 65 °C for 20 min. The production of NFK-derived fluorophore (λEX = 400 nm, λEM = 500 nm) was measured using a microplate reader (Synergy H4; BioTek Instruments, Inc., Winooski, VT, USA) after 60 min post-incubation at room temperature. In the preliminary testing compounds were tested at 100 μM with activities determined as residual activities—RA, which were calculated to% of inhibition, presented in Table 1 and Table 2 (% of inhibition = 100% − RA). All determinations were carried out in duplicates.

In data set [2] the target is T2, IDO1 (Homo sapiens, UniProt P14902). The data set is described as follows: Cell-based IDO1 inhibitory assay on IFN-γ treated HeLa cells. Also on record: endogenous in cells; host or cells: HeLa cells treated with human IFN-γ. Here is the method: All active compounds were additionally evaluated on a cellular level, starting with the determination of cytotoxicity on Hep G2 cell line using the MTS assay (Figure 3), where inner salt of [3-(4,5-dimethylthiazol-2-yl)-5-(3-carboxymethoxyphenyl)-2-(4-sulfophenyl)-2H-tetrazolium is converted to formazan product, its quantity is directly proportional to the number of living cells. Since the majority of compounds were only partially soluble in a cell medium at concentrations above 100 μM, their effect on cell viability was measured at 50 μM, 10 μM, and 1 μM. […] Taken together, the results obtained from cellular tests reminded us of the necessity to consider the physicochemical properties of compounds even at the early stages of design.
HeLa cells were seeded in 96-well plates (2 × 10^4 cells/well) and maintained in Dulbecco’s modified Eagle’s medium, supplemented with 10% fetal bovine serum (both from Thermo Fisher Scientific, Waltham, MA, USA) and 100 µg/mL gentamicin (Sigma-Aldrich, St. Louis, MO, USA). Following overnight incubation in a humidified chamber at 37 °C and 5% CO2 cells were treated with human IFN-γ (50 ng/mL final concentration). […] The absorbance (λABS = 480 nm) of the yellow color derivate formed after 10 min was measured using a microplate reader (Synergy H4; BioTek Instruments, Inc., Winooski, VT, USA).
Target sequence in this assay (P14902 whole entry): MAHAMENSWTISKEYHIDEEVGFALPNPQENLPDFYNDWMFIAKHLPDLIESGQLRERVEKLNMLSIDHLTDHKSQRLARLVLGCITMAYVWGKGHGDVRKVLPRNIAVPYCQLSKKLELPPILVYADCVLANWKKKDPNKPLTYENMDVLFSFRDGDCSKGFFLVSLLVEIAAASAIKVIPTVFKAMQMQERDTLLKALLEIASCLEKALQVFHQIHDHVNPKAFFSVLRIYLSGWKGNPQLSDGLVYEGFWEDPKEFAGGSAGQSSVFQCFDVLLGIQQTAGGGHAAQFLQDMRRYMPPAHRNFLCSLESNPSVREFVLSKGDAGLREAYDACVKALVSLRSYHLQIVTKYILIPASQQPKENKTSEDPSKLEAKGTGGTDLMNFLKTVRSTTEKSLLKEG

For data set [3], the target named is T2, IDO1. Nature of the data set: hIDO1 inhibitory potency evaluation (fluorescence assay, NFK-derived fluorophore). It counts as biochemical. Details: gene encoding human IDO1 residues 6-403 His-tagged at the N-terminus; His tag (N); made in house; host or cells: Escherichia coli NiCo21.
Target sequence in this assay (P14902 6-403): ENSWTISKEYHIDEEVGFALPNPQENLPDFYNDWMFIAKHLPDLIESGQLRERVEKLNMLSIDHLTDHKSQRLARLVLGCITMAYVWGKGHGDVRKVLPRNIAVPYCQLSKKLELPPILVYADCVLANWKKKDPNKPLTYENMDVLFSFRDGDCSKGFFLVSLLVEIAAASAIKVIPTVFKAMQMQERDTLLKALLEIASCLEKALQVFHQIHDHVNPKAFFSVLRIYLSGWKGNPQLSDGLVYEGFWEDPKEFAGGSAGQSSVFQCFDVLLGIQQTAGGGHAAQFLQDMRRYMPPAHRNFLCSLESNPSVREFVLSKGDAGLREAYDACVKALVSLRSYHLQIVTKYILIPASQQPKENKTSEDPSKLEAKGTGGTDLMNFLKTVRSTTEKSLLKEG

pIC50: −log10 of the molar value.

T1 sequence (P48775 whole entry): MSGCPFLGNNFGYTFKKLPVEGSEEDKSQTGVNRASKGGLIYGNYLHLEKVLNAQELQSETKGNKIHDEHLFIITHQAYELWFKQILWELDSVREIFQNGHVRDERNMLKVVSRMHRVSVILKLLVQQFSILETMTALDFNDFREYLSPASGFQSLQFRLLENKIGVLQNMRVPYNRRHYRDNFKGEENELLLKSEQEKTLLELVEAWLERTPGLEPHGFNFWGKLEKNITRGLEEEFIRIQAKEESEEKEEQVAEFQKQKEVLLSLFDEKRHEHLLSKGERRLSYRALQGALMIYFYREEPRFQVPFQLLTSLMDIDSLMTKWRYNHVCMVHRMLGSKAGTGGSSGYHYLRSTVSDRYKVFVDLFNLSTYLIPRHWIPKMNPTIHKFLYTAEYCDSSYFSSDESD

On to `O=C(Cn1cnc2onc(-c3ccc(F)cc3)c2c1=O)Nc1ccc(C(F)(F)F)cc1` [Compound 23], for which the melting point fell in the range of 225 to 227 °C. Moreover, the “hTDO inhibition (in words)” value in data set [1] was “no activity”. Further, the “cell-based IDO1 inhibition” value in data set [2] is reported as “no activity was detected”. Further, the “hIDO1 inhibition (in words)” value in data set [3] was “low micromolar range”. Also, the pIC50 in data set [3] (recombinant hIDO1, mean ± SD of at least two independent determinations, read-out: IDO1 IC50) is 4.64.
